Reference: the NIST ThermoML archive (doi:10.1021/acs.jced.8b00372)

Test: mn = molality of the nth substance listed, in mol/kg
Conditions: for electrical conductivity: 100 kPa, Liquid, Frequency=0.002 MHz, Alternating current cell with electrodes; for surface tension liquid-gas: Ring tensiometer

CCCCCCCCCCCCCCCC[n+]1ccn(C)c1.[Cl-] [1-hexadecyl-3-methylimidazolium chloride] + O
Conditions | electrical conductivity, 303.15 K [S/m] | electrical conductivity, 313.15 K [S/m] | electrical conductivity, 323.15 K [S/m] | surface tension liquid-gas, 313.15 K [mN/m]
m1 = 1.3e-05 | – | – | – | 57.9
m1 = 4.4e-05 | – | – | – | 56.4
m1 = 0.00011 | 0.00121 | 0.00152 | 0.00171 | –
m1 = 0.000146 | – | – | – | 53.2
m1 = 0.00022 | 0.00234 | 0.00295 | 0.00334 | –
m1 = 0.000247 | – | – | – | 50.1
m1 = 0.00033 | 0.00341 | 0.00432 | 0.00491 | –
m1 = 0.00043 | 0.00444 | 0.0056 | 0.0064 | –
m1 = 0.000435 | – | – | – | 46.4
m1 = 0.00052 | 0.00541 | 0.00686 | 0.00791 | –
m1 = 0.00062 | 0.00636 | 0.00803 | 0.00929 | –
m1 = 0.00071 | 0.00726 | 0.00918 | 0.0106 | –
m1 = 0.000734 | – | – | – | 39.2
m1 = 0.00079 | 0.00809 | 0.0102 | 0.0119 | –
m1 = 0.00088 | 0.0088 | 0.0112 | 0.0133 | –
m1 = 0.00096 | 0.00933 | 0.0119 | 0.0143 | –
m1 = 0.00104 | 0.00977 | 0.0125 | 0.0153 | –
m1 = 0.00112 | 0.0102 | 0.0131 | 0.0161 | –
m1 = 0.00119 | 0.0106 | 0.0136 | 0.0168 | –
m1 = 0.00126 | 0.0109 | 0.0141 | 0.0175 | –
m1 = 0.00127 | – | – | – | 38.8
m1 = 0.00133 | 0.0112 | 0.0145 | 0.0181 | –
m1 = 0.00139 | 0.0115 | 0.0149 | 0.0186 | –
m1 = 0.00146 | 0.0118 | 0.0154 | 0.0192 | –
m1 = 0.00153 | 0.0121 | 0.0157 | 0.0197 | –
m1 = 0.002558 | – | – | – | 38.8
m1 = 0.00525 | – | – | – | 38.1
